First: Cc1cccc(-n2cc(CC(=O)O)c(-c3ccc(Cl)cc3)n2)c1
Second: O=C(O)Cc1cc(=O)n(Cc2ccc([N+](=O)[O-])cc2)c2ccccc12
The melting point of the first is lower: 129 to 130 °C for the first, 208 to 210 °C for the second.

Compared with `CS(=O)(=O)OC[C@@H](O)COc1ccc(C#N)cc1`, `CS(=O)(=O)OCCCOC(=O)c1[nH]c(-c2ccccc2)c2cc(Cl)ccc12` is higher in melting point: 119 to 121 °C for the first, 155 to 158 °C for the second.

Compared with `CS(=O)(=O)Nc1cc(NC(=O)CCl)ccc1Oc1ccccc1`, `CC(=O)NS(=O)(=O)c1cc(C(=O)O)cc([N+](=O)[O-])c1Oc1ccccc1` is higher in melting point: 126 to 128 °C for the first, 270 to 271 °C for the second.

First: Cc1c(-c2ccc3oc(SCc4ccccn4)nc3c2)nc2ccccn12
Second: COc1cccc(-c2nc(-c3ccccn3)no2)c1
The melting point of the first is higher: 116 to 118 °C for the first, 96 to 99 °C for the second.

First: CCCCC1=NC2(CCCC2)C(=O)N1Cc1ccc(-c2ccccc2S(=O)(=O)Nc2noc(C)c2C)c(CCC)c1
Second: Cc1cc(C)cc(N(CCO)Cc2ccc3nc(NCCCN4CCOCC4)n(Cc4nc(C)c(C)nc4C)c3c2)c1
The melting point of the first is lower: 64 to 66 °C for the first, 140 °C for the second.

Compared with `Cc1cc(SCc2sc(-c3ccc(C(F)(F)F)cc3)nc2C)ccc1OCC(=O)O`, `CCc1c(-c2ccc(OC)cc2)c2c(CO)cc3cccc1n32` is lower in melting point: 139 to 141 °C for the first, 97 to 100 °C for the second.

Compared with `Cc1cc(Cl)c(Nc2ccc(C)cc2CC(=O)O)c(Cl)c1`, `CC(=O)NCc1ccc(/C=C/C(c2cc(Cl)cc(Cl)c2)C(F)(F)F)cc1Cl` (stereo not drawn) is lower in melting point: 179 to 182 °C for the first, 127 to 128 °C for the second.

Going from `O=C1NC(=O)C(Cc2ccc(OC[C@@H]3CCCN3c3nc4ccccc4s3)cc2)S1` (stereo partly drawn) to `O=C(Nc1nc2ccccc2o1)C(Cc1ccc(F)cc1)c1ccc(F)cc1F` (stereo not drawn), the melting point rises from 95 °C to 178 °C.

First: COc1ccc2cc(-c3ccc(-c4ccccc4)[nH]3)ccc2c1
Second: COc1ccc(-c2nc(-c3cccn3CC(=O)OC(C)C)sc2-c2ccc(OC)cc2)cc1
The melting point of the first is higher: 208 to 210 °C for the first, 130 to 133 °C for the second.

Compared with `CC(=O)OC1CCC2(C)C(CCC3C2CCC2(C)C3CCC2C(C)(O)C#N)C1` (stereo not drawn), `CC(C)CCCC(C)C1CCC2C3CC=C4CC(O)CC(O)C4(C)C3CCC12C` (stereo not drawn) is lower in melting point: 168 to 178 °C for the first, 158 to 161 °C for the second.

First: Cc1ccc(-c2ccc(OC3SCC(O)C(O)C3O)cn2)o1 (stereo not drawn)
Second: CCOC(=O)c1cn(-c2ccc(F)cc2)nc1C
The melting point of the first is higher: 168 °C for the first, 103 to 104 °C for the second.

First: COc1cc([N+](=O)[O-])c2nc(OCc3ccc(Cl)cc3)ccc2c1
Second: COc1ccc2c(c1)C(=O)C(=Cc1ccc(F)cc1)CC2
The melting point of the first is higher: 130 to 134 °C for the first, 129 to 130 °C for the second.

First: COc1ccc(C=C2NC(C(=O)Cc3cc(OC)c(OC)c(OC)c3)=Cc3ccccc32)cc1OC
Second: COc1cc2c(cc1-c1ccccc1F)NC(=O)CC(c1cc(C#N)ccc1F)=N2
The melting point of the first is lower: 164 to 170 °C for the first, greater than 250 °C for the second.

Compared with `COc1ccc(S(C)=O)cc1C(=O)O` (stereo not drawn), `C=CCOc1ccc(C(C)=O)c(NC(C)=O)c1` is lower in melting point: 114 to 116 °C for the first, 63 to 64 °C for the second.

First: Clc1nn(-c2cccnc2)cc1NCC1CC1
Second: Cc1ccc(C(=O)O)cc1Nc1nccc(-c2cccnc2)n1
The melting point of the first is lower: 82 to 83 °C for the first, 277 to 278 °C for the second.

Compared with `CC(=O)n1nc(OCC(=O)C(C)(C)C)c(-c2ccccc2)c1-c1ccc(S(C)(=O)=O)cc1`, `CC(C)(C)OC(=O)N1CCC(CNc2c([N+](=O)[O-])cnc3cc(-c4ccccc4)ccc23)CC1` is lower in melting point: 189 to 191 °C for the first, 153 to 154 °C for the second.

First: Nc1cc(N2CCNCC2)c(F)cc1[N+](=O)[O-]
Second: C#CCOc1cc(-n2nc3n(c2=O)CCCN3)c(F)cc1Cl
The melting point of the first is lower: 120 to 121 °C for the first, 172 to 174 °C for the second.

First: CC(=O)c1ccc(CCNS(=O)(=O)c2ccc(F)cc2)cc1
Second: Nc1ccc(CCn2cccn2)cc1
The melting point of the first is higher: 106 to 107 °C for the first, 73 to 74 °C for the second.

First: NS(=O)(=O)NCC1CCc2ccccc2O1 (stereo not drawn)
Second: O=C1C=NC(c2ccccc2)O1 (stereo not drawn)
The melting point of the first is higher: 100 to 101 °C for the first, 90 °C for the second.

Compared with `Cc1cc(C(=O)NC2=NC(C)(C)CC2(c2ccccc2)c2ccccc2)[nH]n1`, `O=C1c2ccccc2C(=O)N1C(Sc1ccccc1)c1ccccc1` (stereo not drawn) is lower in melting point: 193 to 195 °C for the first, 97 to 99 °C for the second.

First: ClCCOc1cccc2c1OCCO2
Second: COC(=O)c1[nH]c(C)c(C)c1OCCCl
The melting point of the first is lower: 73 °C for the first, 122 to 123 °C for the second.

First: CCn1c(=O)c(C)cc2cnc(Nc3ccccc3)nc21
Second: O=c1[nH]cnc2oc(-c3ccccc3)cc12
The melting point of the first is lower: 178 to 180 °C for the first, 320 to 322 °C for the second.

First: COc1ccc(-c2[nH]c(-c3ccc(F)cc3)cc2C(=O)N2CCOCC2)cc1OC
Second: COc1ccccc1N1CCN(Cc2ccc(NC(=O)C3=Cc4cc(-c5ccc(C)cc5)ccc4CC3)cc2)CC1
The melting point of the first is lower: 190 °C for the first, 202 to 205 °C for the second.

First: Cc1c(C)c(C=O)c2c(c1C)CCO2
Second: Cc1cc(O)c(S(=O)(=O)C(C)(C)C)c(=O)o1
The melting point of the first is lower: 90 °C for the first, 119 to 120 °C for the second.

Compared with `COCCOc1cc(N(C)S(=O)(=O)c2cccs2)c2[nH]c(C3=NCC(CCO)S3)cc2c1` (stereo not drawn), `COC(=O)CCc1cc(C(=O)c2cccc(C(=O)OC)n2)ccc1OC` is lower in melting point: 122 to 123 °C for the first, 97 to 98 °C for the second.

First: CCOC(=O)c1cn(-c2nc(N)c(F)cc2C)c2c(Cl)c(F)c(F)cc2c1=O
Second: CCOC(=O)c1cc2c(=O)c3cc(C(C)(C)O)ccc3oc2nc1N
The melting point of the first is lower: 198 to 202 °C for the first, 263 to 264 °C for the second.

First: CCCCCC(=O)c1cccc(NC(=O)c2ccc(Cl)cc2O)c1
Second: CCC(=N)NC(=O)Nc1ccc(Cl)cc1
The melting point of the first is lower: 134 to 136 °C for the first, 191 to 192 °C for the second.

First: O=C1CCCCC(c2ccccc2)N1 (stereo not drawn)
Second: COC(=O)Nc1cn2cccc(Sc3ccccc3)c2n1
The melting point of the first is lower: 135 to 137 °C for the first, 169 to 171 °C for the second.

First: NS(=O)(=O)c1c(Cl)nc2ccc(C3CC3)nn12
Second: COC(=O)c1cccc(-c2csc(N=C(N)N)n2)n1
The melting point of the first is lower: 194 to 196 °C for the first, 240 °C for the second.

First: O=C(c1cc2ccc(N3CCCCC3)cc2o1)C12CC3CC(CC(C3)C1)C2
Second: CC(Cc1c[nH]c2ccccc12)(NC(=O)OC1C2CC3CC(C2)CC1C3)C(=O)NCCc1cccc(NC(=O)CCC(=O)O)c1 (stereo not drawn)
The melting point of the first is higher: 150 to 152 °C for the first, 78 to 82 °C for the second.

Compared with `CC(=O)N(OC(=O)NC(C)(C)C)C(=O)NC(C)(C)C`, `COC(=O)c1nc2cccc(C)c2c(O)c1C(=O)OC` is higher in melting point: 111 to 113 °C for the first, 167 to 168 °C for the second.

First: CCOC(=O)c1conc1-c1ccc(F)c(Cl)c1
Second: CCNC(=O)c1c([Si](C)(C)C)sc2ccccc12
The melting point of the first is lower: 108 to 109 °C for the first, 121 to 124 °C for the second.

Compared with `CCCCOC1(N)C=CC(NC(=O)CBr)=CC1` (stereo not drawn), `COc1ccc2c(c1)C(CCNC(=O)C(F)(F)F)=CC2` is lower in melting point: 131 to 134 °C for the first, 87 to 88 °C for the second.

First: O=C(Nc1cccnc1)c1cc2ccncc2[nH]1
Second: CC(C)(C)OC(=O)N1CCC[C@@H]1[C@@H](NC(=O)c1ccc(Cl)cc1)NC(=NC#N)Nc1cccnc1
The melting point of the first is higher: 270 to 290 °C for the first, 184 to 185 °C for the second.

Compared with `NNC1(Cl)C=Cc2nc(Cl)cnc2C1` (stereo not drawn), `Cc1nc2[nH]c(=O)[nH]c2cc1-c1ccc([N+](=O)[O-])cc1` is higher in melting point: less than 250 °C for the first, greater than 300 °C for the second.

First: CCCCCc1cc2c(nc(O)n2CCc2ccccc2)c(N)n1
Second: C#CCN(Cc1cc2c(=O)n(C)c(CN3CCN(CCO)CC3)nc2cc1Cl)c1ccc(C(=O)NCc2cccnc2)cc1
The melting point of the first is higher: 238 to 240 °C for the first, 115 to 117 °C for the second.

For `O=C(Nc1ccc(-n2nc(C(F)(F)F)cc2C(F)(F)F)cc1)c1ccc(F)cc1Cl`, the melting point was 155 to 157 °C.

Source: a melting point compilation (Tetko et al.; mined from patent text by program, amines drawn as free bases though some values may be those of a salt)
